Where two headings read alike, the source gives them in different places.

The source of these data is US4696918A, “Solubilized platinum compound” (Johnson Matthey Public Limited Company, priority 1984, dated 1987).

A short description of data set [1]: distribution of platinum in blood, urine and faeces following intravenous administration. The data set is classed as in vivo, male Wistar albino rats. The note with it: rat, 24 hours.
For data set [2] the following is noted: cited from earlier work.
A short description of data set [3]: association with α-cyclodextrin by 1H n.m.r. spectroscopy. The data set is classed as physicochemical. The note with it: D2O, ca. 22° C.; corrected chemical shifts H-3 and H-a vs fraction bound. The protocol: (§1) We have studied the association constant for the preferred compound according to the invention by a micro-calorimetric method which involves measuring the heat evolved when solutions of the platinum(II) compound and α-cyclodextrin are mixed and also by using a ^1 H n.m.r. spectroscopic approach.
For the spectroscopic approach, two types of spectroscopic investigations were performed in D2 O at ca. 22° C. using a Bruker AM250FT Spectrometer. In the first series of experiments, equimolar solutions of Pt(NH3)2.CBDCA and α-cyclodextrin were studied at various dilutions and, in the second series of experiments, the concentration of the platinum complex was kept constant and the concentration of the α-cyclodextrin was varied. When processing the chemical shift data, corrections were made to allow for the tendency of α-cyclodextrin to self-associate. […] The latter was calculated from the equilibrium constant, corrected to the aquamolal scale, obtained from the microcalorimetric measurements.

The subject of a further data set is kidneys. The data set is described as follows: in vivo nephrotoxicity. The arrangement: species or system male Wistar albino rats. The following applies: rat; for histological examination of the kidneys / plasma urea nitrogen levels / urine protein levels (proteinuria): in vivo; for gross nephrotoxicity: from plasma urea nitrogen. The text has this:
(§2) The kidneys were also subjected to histological examination.

A further data set is described as follows: in vivo haematotoxicity. The following applies: rat; for haematotoxicity and nephrotoxicity testing, comparison of the two compounds: blood samples days 1, 4, 8, 12 and 16 after injection, haematocrit, white blood cell counts, plasma urea nitrogen. Also on record: species or system male Wistar albino rats.
From the text: as §2

Data set [4] in a line: association with α-cyclodextrin by microcalorimetry. The data set is classed as physicochemical.
From the text: as §1
For the microcalorimetry experiments, a solution of the platinum complex (0.02366 mol kg^-1) in water was mixed with a range of aqueous solutions of α-cyclodextrin (ca. 0.01-0.1 mol kg^-1) in a batch calorimeter operating at 25° C. A series of preliminary experiments was performed so that corrections for the contributions arising from the enthalpy of dilution of the two solutes could be made. The expression linking the enthalpy change per mol (ΔH) of Pt(NH3)2.CBDCAto the final molalities of both this guest (G) and the α-cyclodextrin host (H) and to the equilibrium constant (Ka) and the standard enthalpy change (ΔH⊖) for the equilibrium,
H+G.revreaction.H·G,
Ka =ΔH·ΔH⊖ /(ΔH⊖
[H]-ΔH[G])(ΔH⊖ -ΔH) (1)
In the Figure, the filled circles denote experimental points and the line denotes the analysis obtained using Equation (1). It is seen that good correlation is obtained between theory and practice.

As for `N.N.O=C([O-])C1(C(=O)[O-])CCC1.[Pt+4]` [Pt(NH3)2.CBDCA, 1,1-cyclobutanedicarboxylatediammineplatinum(II)], in data set [1], the “faecal levels, Pt excretion” value was 4-5% and the “urine levels, Pt excretion” value is reported as 65-67%. Moreover, the general toxicity entry in data set [2] (compared with certain other platinum-containing compounds, particularly cisplatin) is “relatively non-toxic”. For the same molecule, the kidney toxicity entry in data set [2] (relative to cisplatin) is reported as “reduced dramatically”. Besides, the “aqueous solubility (attainable concentration)” value (water) was found to be 50 mM. Also, the “agreement between n.m.r. and thermodynamic results” value in data set [3] was “excellent agreement between the n.m.r. and thermodynamic results”. Further, in the data set with kidneys, the “histological examination of the kidneys” value is on record as “Some nuclear enlargement of the kidneys”, the “plasma urea nitrogen levels” value is “remained constant throughout the study period”, the “urine protein levels (proteinuria)” value is “no obvious proteinuria was observed” and the gross nephrotoxicity entry was “no gross nephtrotoxicity”. For the same molecule, the “haematotoxicity and nephrotoxicity testing, comparison of the two compounds” value in “in vivo haematotoxicity” was “Results as between the two test compounds were similar”. Moreover, the “standard entropy change ΔS⊖” value in data set [4] (association with α-cyclodextrin in water, recorded in FIG. 2) is -27 J K^-1 mol^-1. Further, the “tendency to associate with α-cyclodextrin” value in data set [4] (in water) is on record as “very marked tendency to associate with α-cyclodextrin in water”. Also, the “standard enthalpy change ΔH⊖” value in data set [4] (in water, 25° C., association with α-cyclodextrin) was -5.02 ± 0.478 kcal/mol. Besides, in data set [4] (in water, 25° C., α-cyclodextrin host), the “association (equilibrium) constant Ka” value amounted to 199 ± 10 kg/mol.
With “inclusion compound of 1,1-cyclobutanedicarboxylatediammineplatinum(II) and α-cyclodextrin”, in data set [1], the “faecal levels, Pt excretion” value is recorded as 4-5% and the “urine levels, Pt excretion” value was 65-67%. Besides, the “aqueous solubility (attainable concentration)” value (aqueous α-cyclodextrin solution) is given as “approximately 200 mM”. Also, in the data set with kidneys, the “histological examination of the kidneys” value is on record as “Some nuclear enlargement of the kidneys”, the “plasma urea nitrogen levels” value is on record as “remained constant throughout the study period”, the “urine protein levels (proteinuria)” value is on record as “no obvious proteinuria was observed” and the gross nephrotoxicity result is “no gross nephtrotoxicity”. Further, the “haematotoxicity and nephrotoxicity testing, comparison of the two compounds” value in “in vivo haematotoxicity” is listed as “Results as between the two test compounds were similar”. In the data set “in vivo haematotoxicity” (inclusion compound compared with Pt(NH3)2.CBDCA alone), the “anaemic and myelosuppressive response” value is “slightly less anaemic and myelosuppressive response”.
